From publication PMC6273079, “Purification of Flavonoids from Chinese Bayberry (Morella rubra Sieb. et Zucc.) Fruit Extracts and α-Glucosidase Inhibitory Activities of Different Fractionations” (Molecules, 2016)

Key:
[1] = DPPH radical scavenging activity; conditions: samples from BQ pulp; 1 h reaction, 515 nm; mean ± SD, n = 3
Protocol: DPPH radical scavenging activity was measured according to Brand-Williams, Cuvelier, and Berset with modifications. The reaction for scavenging DPPH radical was carried out by adding 2 μL sample to 198 μL 25 μg/mL DPPH solution at room temperature. Absorbance at 515 nm before (A0) and after (A1) the reaction (1 h) was recorded using a micro-plate reader (BioTech, Synergy H1, Winooski, VT, USA). The radical scavenging activity was calculated as: Scavenging rate (%) = (A0 − A1)/A0 × 100 (1)

[2] = ABTS radical scavenging activity; conditions: samples from BQ pulp; 6 min, 734 nm; mean ± SD, n = 3
Protocol: ABTS assay was carried out using a spectrophotometer as reported. The ABTS radical cation was generated by reacting 7 mmol/L ABTS with 2.45 mmol/L potassium persulfate, and the mixture was allowed to stand in the dark at room temperature for 16 h before use. Before analysis, the ABTS solution was diluted with ethanol to an absorbance of 0.70 ± 0.05 at a wavelength of 734 nm. The absorbance at 734 nm was recorded for 6 min after mixing of 0.1 mL of the tested samples dissolved in ethanol with 3.9 mL of ABTS solution. The radical scavenging activity was calculated as the Equation (1) above.

| IC50 of DPPH scavenging activity [1] | IC50 of ABTS radical scavenging activity [2] | Compound |
| --- | --- | --- |
| 3.22 µg/mL | 4.19 ± 0.16 µg/mL | OC[C@H]1O[C@@H](Oc2cc3c(O)cc(O)cc3[o+]c2-c2ccc(O)c(O)c2)[C@H](O)[C@@H](O)[C@@H]1O [C3G, cyanidin-3-O-glucoside] |
| 2.81 µg/mL | 3.24 ± 0.02 µg/mL | C[C@@H]1O[C@@H](Oc2c(-c3cc(O)c(O)c(O)c3)oc3cc(O)cc(O)c3c2=O)[C@H](O)[C@H](O)[C@H]1O [M3R, myricetin-3-O-rhamnoside] |
| 2.43 µg/mL | 2.09 ± 0.01 µg/mL | O=c1c(O[C@@H]2O[C@H](CO)[C@H](O)[C@H](O)[C@H]2O)c(-c2ccc(O)c(O)c2)oc2cc(O)cc(O)c12 [Q3Gal, quercetin-3-O-galactoside] |

| Compound | IC50 of DPPH scavenging activity [1] | IC50 of ABTS radical scavenging activity [2] |
| --- | --- | --- |
| quercetin-3-O-rhamnoside [Q3R] | 2.55 µg/mL | 2.28 ± 0.05 µg/mL |
